Data set [1] is described as follows: Elimination half life in human. The conditions noted are these: in vivo.
In a further data set the target is D2 receptor (Homo sapiens, UniProt P14416). Briefly: PET study in healthy subjects, D2 receptor occupancy (11C-raclopride). The class given is in vivo. The following applies: read-out: D2 receptor occupancy in the putamen.
The subject of the next data set is schizophrenic patients. Briefly: Randomized, double-blind study of daily vs weekly dosing in schizophrenic patients, PANSS Total Score. The class given is in vivo, human. An excerpt:
The study is a randomized, double-blind, parallel-group, exploratory study of safety, tolerability and PK of daily dosing vs weekly dosing of Compound (I) in schizophrenic patients.
The open-label period (OL_Period) is the period from start of open-label treatment (baseline) until stop of open-label treatment (at OL-withdrawal or randomisation to double-blind treatment, whichever occurs first).
The double-blind period (DB_Period) is the period from start of double-blind treatment (randomisation) until stop of double-blind treatment (at DB-withdrawal or completion, whichever occurs first), that is, the entire double-blind period including the PBO_Period.
The IMP dosing period (IMP_Period) is the period from start of open-label treatment (baseline) until stop of double-blind treatment (at withdrawal or completion, whichever occurs first), that is, the OL_Period plus the DB_Period.
A study was conducted with a study design as described in Example 2.

In the next data set the target is D1 receptor (Homo sapiens, UniProt P21728). Briefly: PET study in healthy subjects, D1 receptor occupancy (11C-SCH23390). Format: in vivo. The conditions noted are these: read-out: D1 receptor occupancy in putamen.
Data set [2] deals with rats. The data set is described as follows: Condition avoidance response (CAR) model in rats. The class given is in vivo, rat. The following applies: at very low levels of D2 receptor occupancy.
Data set [3] concerns rats. The conditions noted are these: fumarate salt; cited from earlier work.
A further data set addresses T1, D2 receptors (Rattus norvegicus, UniProt P61169).
T1 construct: the brain quickly removed and striatum and cerebellum dissected out and homogenized; from tissue; host or cells: striatum of male Wistar rats (in vivo)
Briefly: In vivo binding to D2 receptors in rat brain ([3H]-raclopride). The conditions noted are these: sc, subcutaneous.

[4] abbreviates: 2 mg/day given daily for 18 days.
[5] abbreviates: 10 mg/day given daily for 18 days.

Sequence of D2 receptor (P14416 whole entry): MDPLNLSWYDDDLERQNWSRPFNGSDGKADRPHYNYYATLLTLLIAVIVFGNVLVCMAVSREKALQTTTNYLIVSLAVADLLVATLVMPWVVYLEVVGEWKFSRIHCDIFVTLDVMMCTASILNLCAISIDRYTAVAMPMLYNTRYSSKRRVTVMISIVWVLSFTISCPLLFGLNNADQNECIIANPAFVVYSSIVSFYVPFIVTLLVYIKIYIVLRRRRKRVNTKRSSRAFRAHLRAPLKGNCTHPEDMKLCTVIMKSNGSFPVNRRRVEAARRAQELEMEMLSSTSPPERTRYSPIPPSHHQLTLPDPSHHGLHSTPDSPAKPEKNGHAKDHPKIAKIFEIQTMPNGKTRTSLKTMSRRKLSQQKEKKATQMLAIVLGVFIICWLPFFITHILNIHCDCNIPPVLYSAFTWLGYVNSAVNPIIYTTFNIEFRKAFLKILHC
Sequence of D1 receptor (P21728 whole entry): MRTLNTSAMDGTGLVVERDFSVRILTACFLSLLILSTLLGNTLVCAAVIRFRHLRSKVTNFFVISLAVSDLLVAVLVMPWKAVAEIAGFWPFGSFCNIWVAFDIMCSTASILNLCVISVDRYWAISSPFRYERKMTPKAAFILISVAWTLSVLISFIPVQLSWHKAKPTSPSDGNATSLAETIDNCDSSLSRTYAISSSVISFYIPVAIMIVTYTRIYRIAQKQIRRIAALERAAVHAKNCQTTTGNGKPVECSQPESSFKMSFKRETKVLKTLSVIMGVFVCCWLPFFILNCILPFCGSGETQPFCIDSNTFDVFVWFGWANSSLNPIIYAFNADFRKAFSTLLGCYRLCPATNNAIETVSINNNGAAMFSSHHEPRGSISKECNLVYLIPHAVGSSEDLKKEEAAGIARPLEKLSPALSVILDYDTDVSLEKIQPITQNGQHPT
T1 sequence (P61169 whole entry): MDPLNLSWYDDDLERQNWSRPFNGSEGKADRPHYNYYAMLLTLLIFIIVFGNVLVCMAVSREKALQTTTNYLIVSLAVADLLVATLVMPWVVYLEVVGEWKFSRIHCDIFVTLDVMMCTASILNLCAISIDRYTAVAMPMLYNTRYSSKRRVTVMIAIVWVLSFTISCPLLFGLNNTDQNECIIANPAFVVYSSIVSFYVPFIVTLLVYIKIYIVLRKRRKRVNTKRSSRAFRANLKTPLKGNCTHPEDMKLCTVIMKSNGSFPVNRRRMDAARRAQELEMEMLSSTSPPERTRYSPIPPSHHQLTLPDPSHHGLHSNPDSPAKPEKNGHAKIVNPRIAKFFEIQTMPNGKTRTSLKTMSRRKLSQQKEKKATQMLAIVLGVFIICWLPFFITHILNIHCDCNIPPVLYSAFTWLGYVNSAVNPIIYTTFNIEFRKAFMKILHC
Experimental for D2 receptors: Description of In Vivo Binding to D2 Receptors in Rat Brain
In vivo binding is carried out according to Andersen et al (Eur J Pharmacol, (1987) 144:1-6) with a few modifications (Kapur S. et al, J Pharm Exp Ther, 2003, 305, 625-631). Briefly, 6 rats (male Wistar, 180-200 g) are treated with 20 mg/kg test compound subcutaneous 30 minutes before receiving 9.4 micro Ci [^3H]-raclopride intravenous via the tail vein.
15 minutes after the injection of the radio ligand the animals are killed by cervical dislocation, the brain quickly removed and striatum and cerebellum dissected out and homogenized in 5 mL (cerebellum in 20 mL) ice-cold buffer (50 mM K2PO4, pH 7.4). 1.0 mL of the homogenate is filtered through 0.1% PEI—soaked Whatman GF/C filters. This is completed within 60 seconds subsequent to the decapitation. Filters are washed 2 times with 5 mL ice-cold buffer and counted in a scintillation counter. A group of vehicle treated animals is used to determine [^3H]-raclopride total binding in striatum and non-specific binding in cerebellum. The homogenate is measured for protein content by the BCA protein determination assay (Smith P. K. et al (1985) Anal. Biochem., 150: 6-85).

One may read the half-life as the time in which the quantity being followed falls by half. Read a high half-life as slow loss. The molecule `CC1(C)CN([C@@H]2C[C@@H](c3ccccc3)c3ccc(Cl)cc32)CCN1` (relative stereo) [Compound (II), trans-1(6-chloro-3-phenyl-indan-1-yl)-3,3-dimethyl-piperazine] returned a half-life in data set [1] of 300 to 400 h.
As usually defined, the ED50 is the midpoint of the dose-response relation. Read a high ED50 as weaker potency. Take `CN1CCN([C@@H]2C[C@@H](c3ccccc3)c3ccc(Cl)cc32)CC1(C)C` [Compound (I), 4-((1R,3S)-6-chloro-3-phenyl-indan-1-yl)-1,2,2-trimethyl-piperazine]: the receptor occupancy at 2 mg at D2 receptor (setting [4]) came to 11%; at D1 receptor (setting [4]), 32%. In addition, the receptor occupancy at 10 mg was 43% at D2 receptor (setting [5]) and 69% on D1 receptor (setting [5]). Also, the “Mean (change in PANSS) Total Score from randomization” value (from here on “Mean (change in PANSS) Total Score”) was 1.55 in the data set with schizophrenic patients (10 mg/day, study day 29); −1.00 in the data set with schizophrenic patients (10 mg/day, study day 36); −2.50 in the data set with schizophrenic patients (10 mg/day, study day 43); −3.50 with schizophrenic patients (10 mg/day, study day 50); −5.80 in the data set on schizophrenic patients (10 mg/day, study day 57); 0.00 in the data set with schizophrenic patients (20 mg/week, study day 29). For the same molecule, the “Mean (change in PANSS) Total Score” value with schizophrenic patients (20 mg/week, study day 36) is 0.80; in the data set on schizophrenic patients (20 mg/week, study day 43), −2.00; in the data set on schizophrenic patients (20 mg/week, study day 50) it was −1.22; in the data set on schizophrenic patients (20 mg/week, study day 57), −4.38; with schizophrenic patients (30 mg/week, study day 29) it was 1.09; in the data set with schizophrenic patients (30 mg/week, study day 36), 0.50. Also, the “Mean (change in PANSS) Total Score” value is on record as 4.00 in the data set with schizophrenic patients (30 mg/week, study day 43); −4.14 with schizophrenic patients (30 mg/week, study day 50); −5.43 in the data set with schizophrenic patients (30 mg/week, study day 57); 0.40 in the data set with schizophrenic patients (45 mg/week, study day 29); −3.50 in the data set on schizophrenic patients (45 mg/week, study day 36); −5.70 with schizophrenic patients (45 mg/week, study day 43). Also, the “Mean (change in PANSS) Total Score” value in the data set with schizophrenic patients (45 mg/week, study day 50) is listed as −8.00; in the data set on schizophrenic patients (45 mg/week, study day 57), −6.88. In addition, in the data set on schizophrenic patients (once weekly, 20 mg/week to 45 mg/week, in particular 30 and 45 mg/week), the “reduction in PANSS Total Score compared with daily dose of 10 mg/day” value is recorded as “as effective in reduction in PANSS Total Score as a daily dose of 10 mg/day”. The “reduction of PANSS Total Score compared with daily dose of 10 mg/day” value in the data set with schizophrenic patients (once weekly, between about 30 mg/week and about 45 mg/week) is on record as “at least to the same extend as a daily dose of 10 mg/day”. The same molecule showed a half-life in data set [1] of roughly 150 h. For the same molecule, in the data set on rats [2], the “antipsychotic activity in CAR model” value is recorded as “possesses antipsychotic activity”. The induction of catalepsy entry with rats [3] is “does not induce catalepsy”. The 50% effective dose (ED50) at D2 receptors was determined as 4.1 mg/kg.

Source of the values: US9610287B2 (H. Lundbeck A/S, priority 2011, dated 2017).
